Test systems include M14; EKVX; HCC 2998; NCI-H226; OVCAR-5; SF-539; COLO 205; IGROV-1; HT-29; MDA-MB-435; HCT-15; U-251; NCI/ADR-RES; SR; SN12C; OVCAR-4; SK-MEL-2; T47D.
Holding throughout (assay): NCI-60 cell line screen, 48 h

The text below walks through data of ChEMBL document CHEMBL1201862, “PubChem BioAssay data set” (2004).

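Interpolation was linear, between the two tested concentrations surrounding the appropriate level; five concentrations were tested over 48 hours in 96-well plates. At the GI50, growth is halved.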 Active and inactive are the calls of the source. Cut-off read from the data, not from the text of the source: active = GI50 up to about 1.1 µM and inactive = higher. A value given as a limit tells only on which side of the number the result lay.

Take `Oc1c2c(nc3cc4c(cc13)OCO4)-c1ccccc1CCC2`: the GI50 in the assay with M14 is 49.3 µM (inactive); in the assay on EKVX it was > 50 µM (inactive); with HCC 2998, > 50 µM (inactive); with NCI-H226, > 50 µM (inactive); in the assay on OVCAR-5, > 50 µM (inactive); in the assay on SF-539 it was > 50 µM (inactive). The GI50 is > 50 µM (inactive) in the assay with COLO 205; 30.2 µM (inactive) in the assay with IGROV-1; 34.4 µM (inactive) with HT-29; 23.7 µM (inactive) in the assay on MDA-MB-435; over 50 µM in the assay with HCT-15; > 50 µM (inactive) in the assay on U-251. Moreover, the GI50 in the assay on NCI/ADR-RES was > 50 µM (inactive); in the assay with SR, 12.3 µM (inactive); with SN12C, > 50 µM (inactive); in the assay on OVCAR-4, 30.2 µM (inactive).
On to `CCN(CC)c1ccc2cc(-c3nnc(-c4ccccc4)[nH]3)c(=O)oc2c1`, for which the GI50 is > 100 µM (inactive) with M14; 22.8 µM (inactive) in the assay with EKVX; > 100 µM (inactive) with HCC 2998; 28.2 µM (inactive) in the assay with OVCAR-5; 13.8 µM (inactive) in the assay with SF-539; > 100 µM (inactive) in the assay on COLO 205. Besides, the GI50 was 17.7 µM (inactive) in the assay with IGROV-1; 33 µM (inactive) in the assay with SK-MEL-2; 33 µM (inactive) with HT-29; 41.9 µM (inactive) with MDA-MB-435; over 100 µM in the assay with HCT-15; 15 µM (inactive) with U-251. Also, the GI50 is 21.7 µM (inactive) with NCI/ADR-RES, 70.5 µM (inactive) in the assay on SR and 7.36 µM (inactive) in the assay on OVCAR-4.
With `CC(=O)OC1[C@H](n2ccnc2)C[C@H]2[C@@H]3CC=C4CC(N5CCCC5)CC[C@]4(C)[C@H]3CC[C@]12C` (stereo partly specified), the GI50 with M14 was 21.8 µM (inactive); in the assay on EKVX, 70.1 µM (inactive); in the assay on NCI-H226 it was 40.1 µM (inactive); in the assay with OVCAR-5 it was > 100 µM (inactive); with SF-539, 14.1 µM (inactive); in the assay on COLO 205, 23.7 µM (inactive). Further, the GI50 in the assay on IGROV-1 is 43.7 µM (inactive); in the assay with SK-MEL-2, 20.3 µM (inactive); with HT-29 it was 5.35 µM (inactive); with MDA-MB-435, 23.8 µM (inactive); in the assay with HCT-15 it was 21.3 µM; with U-251, 55.3 µM (inactive). For the same compound, the GI50 is > 100 µM (inactive) in the assay with NCI/ADR-RES, 12 µM (inactive) with SR, 51.9 µM (inactive) in the assay with SN12C and 87.3 µM (inactive) in the assay on OVCAR-4.
Consider `O=P(O)(O)c1ccc(-c2ccc(I)cc2)cc1`, for which the GI50 with M14, in the assay with EKVX, in the assay on HCC 2998, in the assay with NCI-H226, in the assay with OVCAR-5 and with T47D was > 100 µM (inactive) throughout. The GI50 in the assay on SF-539 is > 100 µM (inactive); in the assay with COLO 205 it was > 100 µM (inactive); with IGROV-1, > 100 µM (inactive); with SK-MEL-2, > 100 µM (inactive); in the assay on HT-29, > 100 µM (inactive); with HCT-15, over 100 µM. Also, the GI50 in the assay on U-251, in the assay with NCI/ADR-RES, with SR, in the assay on SN12C and in the assay on OVCAR-4 was > 100 µM (inactive) in each case.
For the compound `O=C1C(Br)=CC2(C=C1Br)CCNC1=C2C(=O)c2cccnc2C1=O`, the GI50 in the assay on M14 is 8.65 µM (inactive); in the assay on EKVX, 15 µM (inactive); with HCC 2998 it was 18 µM (inactive); in the assay on NCI-H226 it was 16.6 µM (inactive); in the assay with OVCAR-5, 17.4 µM (inactive); with SF-539 it was 8.99 µM (inactive). The GI50 in the assay with COLO 205 is 16.4 µM (inactive); with IGROV-1, 9.18 µM (inactive); with SK-MEL-2, 2.69 µM (inactive); in the assay on HT-29 it was 18.2 µM (inactive); in the assay with MDA-MB-435, 1.89 µM (inactive); with HCT-15, 5.14 µM. Besides, the GI50 in the assay with U-251 was 17.6 µM (inactive); in the assay with NCI/ADR-RES, 20.8 µM (inactive); with SR, 2.93 µM (inactive); in the assay on SN12C, 12.5 µM (inactive); in the assay with OVCAR-4, 17.2 µM (inactive).
